Legend:
[1] = molecular target: Glutamate receptor ionotropic, NMDA 2B (Rattus norvegicus, UniProt Q00960); experiment: Antagonist activity at Wistar rat brain NR2B assessed as inhibition of glutamate/glycine-induced Ca2+ flux measured after 90 secs
[2] = molecular target: hERG (KCNH2) (Homo sapiens, UniProt Q12809); experiment: Displacement of [3H]-dofetilide from human ERG expressed in HEK293 cell membranes after 90 mins by scintillation counting; conditions: membranes of HEK293 cells that express human ERG, probe [3H]-dofetilide
hERG (KCNH2), sequence (Q12809 whole entry): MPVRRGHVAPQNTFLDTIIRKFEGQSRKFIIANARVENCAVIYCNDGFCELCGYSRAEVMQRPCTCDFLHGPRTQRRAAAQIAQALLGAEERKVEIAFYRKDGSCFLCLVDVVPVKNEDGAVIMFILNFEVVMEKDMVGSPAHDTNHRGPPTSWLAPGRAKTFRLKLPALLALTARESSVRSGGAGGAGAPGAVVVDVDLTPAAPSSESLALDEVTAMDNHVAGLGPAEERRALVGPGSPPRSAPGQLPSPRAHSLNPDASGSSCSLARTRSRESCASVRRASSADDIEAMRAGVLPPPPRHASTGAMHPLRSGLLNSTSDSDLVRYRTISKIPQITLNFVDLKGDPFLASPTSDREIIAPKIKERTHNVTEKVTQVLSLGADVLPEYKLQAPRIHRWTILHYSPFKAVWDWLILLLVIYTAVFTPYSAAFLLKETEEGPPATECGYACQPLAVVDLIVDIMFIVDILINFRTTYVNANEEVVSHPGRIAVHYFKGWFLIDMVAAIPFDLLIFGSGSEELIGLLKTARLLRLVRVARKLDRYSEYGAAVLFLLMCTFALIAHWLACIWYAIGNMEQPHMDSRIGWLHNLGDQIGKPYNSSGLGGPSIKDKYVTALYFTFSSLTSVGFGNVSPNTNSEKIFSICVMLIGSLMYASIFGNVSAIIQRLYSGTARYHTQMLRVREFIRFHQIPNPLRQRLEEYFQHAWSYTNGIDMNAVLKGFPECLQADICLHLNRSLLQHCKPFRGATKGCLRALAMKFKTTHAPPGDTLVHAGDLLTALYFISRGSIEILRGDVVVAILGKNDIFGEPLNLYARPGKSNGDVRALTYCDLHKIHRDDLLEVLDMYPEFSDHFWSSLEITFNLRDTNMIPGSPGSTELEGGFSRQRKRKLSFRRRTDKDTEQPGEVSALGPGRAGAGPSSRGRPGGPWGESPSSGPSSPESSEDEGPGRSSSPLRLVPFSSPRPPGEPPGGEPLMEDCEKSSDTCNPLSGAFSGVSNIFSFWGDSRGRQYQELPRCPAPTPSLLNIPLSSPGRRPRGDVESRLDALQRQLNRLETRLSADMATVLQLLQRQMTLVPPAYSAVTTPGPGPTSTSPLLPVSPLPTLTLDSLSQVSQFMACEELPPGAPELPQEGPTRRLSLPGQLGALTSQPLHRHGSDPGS

[3] = Antidepressive activity in po dosed NMRI mouse assessed as reduction in duration of immobility administered 30 mins prior to the test measured on last 4 mins of the 10 mins test by force swim test; format: functional, organism-based

Glutamate receptor ionotropic, NMDA 2B, sequence (Q00960 whole entry): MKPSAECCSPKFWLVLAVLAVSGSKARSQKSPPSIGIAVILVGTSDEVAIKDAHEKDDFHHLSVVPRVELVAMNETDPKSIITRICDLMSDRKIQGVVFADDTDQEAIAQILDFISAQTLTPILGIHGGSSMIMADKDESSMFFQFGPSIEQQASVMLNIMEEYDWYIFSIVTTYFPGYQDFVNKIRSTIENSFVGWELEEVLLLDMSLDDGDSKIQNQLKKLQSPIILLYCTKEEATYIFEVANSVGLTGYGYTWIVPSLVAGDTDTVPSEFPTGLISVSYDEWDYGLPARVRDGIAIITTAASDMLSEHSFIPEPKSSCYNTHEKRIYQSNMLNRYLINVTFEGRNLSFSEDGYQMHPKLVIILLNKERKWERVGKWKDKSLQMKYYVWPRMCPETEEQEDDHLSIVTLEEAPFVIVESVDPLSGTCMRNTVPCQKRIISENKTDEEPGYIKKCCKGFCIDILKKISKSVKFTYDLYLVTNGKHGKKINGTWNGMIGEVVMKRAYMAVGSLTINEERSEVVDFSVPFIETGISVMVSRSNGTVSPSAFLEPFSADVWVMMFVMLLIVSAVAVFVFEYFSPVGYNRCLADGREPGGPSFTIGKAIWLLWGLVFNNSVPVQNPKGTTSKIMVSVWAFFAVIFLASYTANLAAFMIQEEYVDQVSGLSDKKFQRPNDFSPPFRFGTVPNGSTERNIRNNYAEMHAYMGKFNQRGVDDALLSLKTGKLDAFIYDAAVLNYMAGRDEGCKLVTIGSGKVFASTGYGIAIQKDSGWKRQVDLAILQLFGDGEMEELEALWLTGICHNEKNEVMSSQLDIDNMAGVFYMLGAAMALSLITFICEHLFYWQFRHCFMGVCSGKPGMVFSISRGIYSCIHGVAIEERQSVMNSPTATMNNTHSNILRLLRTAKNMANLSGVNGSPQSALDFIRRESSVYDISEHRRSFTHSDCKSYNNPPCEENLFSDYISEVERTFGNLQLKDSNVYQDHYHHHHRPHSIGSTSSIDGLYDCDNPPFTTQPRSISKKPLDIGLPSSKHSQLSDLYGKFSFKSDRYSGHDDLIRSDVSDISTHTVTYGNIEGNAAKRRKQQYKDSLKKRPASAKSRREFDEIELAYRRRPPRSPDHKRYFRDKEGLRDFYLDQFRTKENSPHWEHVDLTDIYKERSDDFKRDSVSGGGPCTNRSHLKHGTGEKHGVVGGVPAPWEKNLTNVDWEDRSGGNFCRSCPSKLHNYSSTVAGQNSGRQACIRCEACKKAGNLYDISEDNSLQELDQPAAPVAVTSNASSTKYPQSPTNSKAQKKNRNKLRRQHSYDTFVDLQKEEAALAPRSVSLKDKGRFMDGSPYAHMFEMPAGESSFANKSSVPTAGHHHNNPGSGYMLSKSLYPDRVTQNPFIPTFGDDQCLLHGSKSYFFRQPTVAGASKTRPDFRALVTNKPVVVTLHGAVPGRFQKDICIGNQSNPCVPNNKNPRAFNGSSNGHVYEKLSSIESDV

| Compound | IC50 [1] | IC50 at 90 min [2] | MED [3] |
| --- | --- | --- | --- |
| FC(F)Oc1cc(-c2cnn(Cc3cn[nH]c3)c2)ccc1Cl | 0.00823 µM | 52.6 µM | – |
| Cn1ccc(Cn2cc(-c3ccc(Cl)c(OC(F)F)c3)cn2)n1 | – | – | 30 mg/kg |
| Cn1ccc(Cn2cc(-c3ccc(Cl)c(C(F)(F)F)c3)cn2)n1 | 1.01 µM | 3.47 µM | – |
| Fc1ccc(-c2cnn(Cc3cc[nH]n3)c2)cc1OC(F)F | – | – | 10 mg/kg |
